Data taken from patent US20240376109A1, “PYRAZOLO[1,5-A]PYRIMIDINE COMPOUND FOR THE TREATMENT OF DERMAL DISORDERS” (OTSUKA PHARMACEUTICAL CO., LTD., priority 2021, published 2024).
Like-named read-outs stand apart in the source and are kept apart here.

Key:
PAR2 = target: T1, PAR2 (Homo sapiens, UniProt P55085); experiment: Intracellular calcium concentration measurement (SLIGKV-NH2-induced calcium change, Fluo-8, FDSS/μCELL); type: cell-based
T1 construct: HEK293 cell lines derived from human embryonic kidney cultured in a MEM culture medium; endogenous in cells; host or cells: HEK293
T1 sequence (P55085 26-397): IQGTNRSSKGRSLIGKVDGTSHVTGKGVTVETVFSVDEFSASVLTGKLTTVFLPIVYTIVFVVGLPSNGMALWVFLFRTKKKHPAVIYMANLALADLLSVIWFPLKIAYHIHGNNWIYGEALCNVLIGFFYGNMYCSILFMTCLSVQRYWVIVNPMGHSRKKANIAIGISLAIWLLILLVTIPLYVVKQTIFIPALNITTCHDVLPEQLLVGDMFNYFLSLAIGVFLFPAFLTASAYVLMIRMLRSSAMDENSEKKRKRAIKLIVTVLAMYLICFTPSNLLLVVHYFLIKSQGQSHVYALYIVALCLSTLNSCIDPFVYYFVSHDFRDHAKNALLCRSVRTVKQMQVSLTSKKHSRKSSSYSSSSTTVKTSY

NC/Nga mice = experiment: Scratching behavior test using atopic dermatitis model (SDS and mite antigen ointment sensitization); conditions: 60 μL applied, 7 hours after application
NZW rabbits = experiment: Rabbit skin cumulative irritation test (erythema and edema scores, 7 days); type: in vivo; parameters: key: sum of erythema (5-point scale) + edema (5-point scale) scores; conditions: 50 μL of 3% solution in 70% ethanol daily for 7 days; for Irritant score Day 7: average total score of erythema and edema on Day 7; for Irritant score Maximum: maximum (total) score of erythema and edema during the test period
Procedure: Test Example 4: Rabbit Skin Cumulative Irritation Test
18-20 week-old female NZW rabbits shaved on the back with a shaver were fitted with a collar (Natsume Seisakusho Co., Ltd.). A 2.5 cm×2.5 cm frame was placed on the back of the rabbits, and 50 μL of a 3% solution of each compound in 70% ethanol was applied to the place in 2 or 3 rabbits. The next day (approximately 24 hours later), the compound applied on the previous day was wiped off with a cotton pad soaked in lukewarm water, and approximately 30 minutes later, erythema (5-point scale) and edema (5-point scale) were evaluated according to the score criteria shown below.
After the score evaluation, the compound was applied again. This process was conducted for 7 days, and irritancy was evaluated by the average of the total score of erythema and edema on the last day of evaluation (Day 7) and the maximum (total) scores during the test period.
The score evaluation criteria were as follows.

ICR mice = experiment: Scratching behavior test with PAR2 agonist peptide (SLIGRL-NH2) administration; type: in vivo, mouse; conditions: 40 μL of 6% test compound solution applied to back, SLIGRL-NH2 intradermal, scratching counted 10 to 40 minutes after
Procedure: Test Example 2: Scratching Behavior Test with PAR2 Agonist Peptide Administration
Magnets for measuring scratching behavior(Neuroscience, Inc.) were implanted in both legs of 6- to 7-week-old female ICR mice under 3.5% isoflurane inhalation anesthesia.
Under isoflurane inhalation anesthesia, the upper back was shaved about 2×3 cm with a shaver and 40 μL of a 6% of test compound solution was applied with a micropipette. The animals were then kept in a dedicated cage for 1 hour. […] Then, under isoflurane inhalation anesthesia, 10 μL of a 25 mg/mL solution of PAR2 agonist peptide (SLIGRL-NH2) in distilled water was administered intradermally by using a needle attached to a Hamilton syringe. The animals were returned to the cage and the scratching frequency was measured by the device for 30 minutes from 10 to 40 minutes after the administration.
The inhibitory effect of the test compounds on scratching behavior was calculated as a percentage of the number of scratches in the solvent-applied and PAR2 agonist peptide-treated group, and is shown in Table 4 as a percentage.

[1] = HEK293 cells, SLIGKV-NH2 10 μM-induced intracellular calcium change, read-out: IC50
[2] = assessed concentration 6%, solvent 100% ethanol

Row | SMILES | IC50 (PAR2; [1]) | Scratching behavior inhibition rate (NC/Nga mice; assessed concentration 6%, solvent 70% ethanol) | Irritant score Day 7 (NZW rabbits) | Irritant score Maximum (NZW rabbits) | scratching-behavior inhibition rate (ICR mice; solvent 70% ethanol) | IC50 (PAR2; IC50 (nM)) | Scratching behavior inhibition rate (NC/Nga mice; [2]) | scratching-behavior inhibition rate (ICR mice; solvent 100% ethanol) | Scratching behavior inhibition rate (NC/Nga mice; assessed concentration 3%, solvent 100% ethanol)
1 | O=C(c1cc2nc(CC3CCCCC3)cc(C(F)(F)F)n2n1)N1CCCCCC1 [Example 3, azepan-1-yl(5-(cyclohexylmethyl)-7-(trifluoromethyl)pyrazolo[1,5-a]pyrimidin-2-yl)methanone] | 23 nM | 71% | 1.5 | 1.6 | 33% |  |  |  | 
2 | CC(C)c1cc(CC2CCCCC2)nc2cc(C(=O)N3CCCCCC3)nn12 [Example 7, azepan-1-yl(5-(cyclohexylmethyl)-7-isopropylpyrazolo[1,5-a]pyrimidin-2-yl)methanone] |  |  | 0.3 | 1.3 |  | 113 nM | 70% | 32% | 
3 | CC(C)c1cc(CC2CCCC2)nc2cc(C(=O)N3CCCCC3(C)C)nn12 [Example 12] | 76 nM |  | 0.0 | 0.0 |  |  | 102% | 51% | 
4 | CC(C)c1cc(CCC2CCCC2)nc2cc(C(=O)N3CCCCCC3)nn12 [Example 14] | 186 nM |  | 2.0 | 2.0 |  |  | 95% |  | 
5 | CC(C)c1cc(CC2CCCC2)nc2cc(C(=O)N3CCCCCC3)nn12 [Example 15, azepan-1-yl-[5-(cyclopentylmethyl)-7-propan-2-ylpyrazolo[1,5-a]pyrimidin-2-yl]methanone] | 150 nM |  | 0.0 | 0.7 |  |  |  | 44% | 52%
6 | CC(C)c1cc(CCC2CCCCC2)nc2cc(C(=O)N3CCCCCC3)nn12 [Example 17] | 232 nM |  | 0.7 | 1.3 |  |  | 60% |  | 
